Tested on: primary hepatocytes isolated from rats
Assay: Hepatocyte protective effect against doxorubicin-induced hepatocyte toxicity (WST-1 viability)
Type: cell-based
Conditions: against doxorubicin treatment, primary rat hepatocytes pretreated with compound 30 min, viability by WST-1 after 24-48 hours, concentration giving 50% of maximum protective effect
Protocol: Various endogenous/exogenous attacks on cells trigger the mechanisms of cell death which is broadly classified into two types—i.e., apoptosis or necrosis. Using these cell death mechanisms, in the present experimental example, primary hepatocytes isolated from rats were treated with drugs which were clinically shown to result in serious side-effects of hepatocyte toxicity or various chemicals which cause cell death, and the compounds synthesized in the Examples were estimated for their hepatocyte protective effects, after 24-48 hours. The substances used to cause hepatocyte death include CCl4, ActD, H2O2, doxorubicin, anti-Fas Ab/Actinomycin D, acetaminophen, EtOH, CdCl2, palmitate, stearate, cyclophosphamide, terfenadine, diclofenac, simvastatin, and adefovir. Primary hepatocytes were isolated using the method of Seglen P O (Experimental Cell Research 74 (1972), pp. 450-454). Briefly, hepatocytes were isolated according to the two-step collagenase perfusion method, and dead cells were removed by low speed (500 rpm) centrifugation for 10 min using percoll gradient (Kreamer B L et al., In Vitro Cellular & Developmental Biology 22 (1986), pp. 201-211). During this step, the viability of cells was maintained 90% or above. The cells were suspended in HepatoZYME media (Gibco BRL), and the number of cells was counted. 1.5×10^4 cells in 100 μl were placed into the collagen-coated 96-well plate (BD Biocoat), and adhered on the bottom for 3-4 hours.
In order to assess the hepatocyte protective effect, the above adhered cells were pretreated with the Example compounds for 30 min. At this time, the concentration of the Example compounds was serially diluted by 2-fold or 3-fold over 5 steps starting from 30 μM, 10 μM or 1 μM depending on the experiments, and the final concentration of DMSO was adjusted to 0.2%. 30 min after the treatment by the compounds, the cells were treated by the substances deriving hepatocyte death or hepatotoxic drugs at the concentrations indicated in Table 1. After 24-48 hours, the viability of cells was determined to estimate the hepatocyte protective effects. The viability of cells was determined using the WST-1 (MK-400, […]) method by the absorbance at 440 nm. Hepatocyte protective effects of the Example compounds were represented by “EC50” which was calculated from measured values. “EC50” herein means the concentration of the compound at which 50% of maximum protective effect is observed in the experiment.

SMILES: O=C(Nc1cccc(CN2CCOCC2)c1)c1cc2cc(Cl)cc(NC3CCNCC3)c2[nH]1 [Example 13, 5-Chloro-7-(piperidin-4-ylamino)-1H-indol-2-carboxylic acid (3-morpholin-4-ylmethyl-phenyl)-amide]
- EC50 (Hepatocyte): 150 nM

SMILES: Cc1cc(NC2CCCC2)c2[nH]c(C(=O)N3CCNCC3)cc2c1 [Example 29, (7-Cyclopentylamino-5-methyl-1H-indol-2-yl)-piperazin-4-yl-methanone]
- EC50 (Hepatocyte): 200 nM

SMILES: Cc1cc(NC2CCOCC2)c2[nH]c(C(=O)N3CC[C@H](C(=O)O)C3)cc2c1 [Example 38, (S)-1-[5-methyl-7-(tetrahydropyran-4-ylamino)-1H-indol-2-carbonyl]-pyrrolidin-3-carboxylic acid]
- EC50 (Hepatocyte): 330 nM

SMILES: CC(C)CCNc1cc(Cl)cc2cc(C(=O)N3CCC(CN)C3)[nH]c12 (centres unmarked) [Example 46, (3-Aminomethyl-pyrrolidin-1-yl)-[5-chloro-7-(3-methyl-butylamino)-1H-indol-2-yl]-methanone]
- EC50 (Hepatocyte): 290 nM

SMILES: NCC1CCN(C(=O)c2cc3cc(Cl)cc(NCCc4ccccc4)c3[nH]2)C1 (centres unmarked) [Example 49, (3-Aminomethyl-pyrrolidin-1-yl)-(5-chloro-7-penethylamino-1H-indol-2-yl]-methanone]
- EC50: 330 nM

SMILES: CCCCCNc1cc(Cl)cc2cc(C(=O)N3CCC(CN)C3)[nH]c12 (centres unmarked) [Example 50, (3-Aminomethyl-pyrrolidin-1-yl)-(5-chloro-7-pentylamino-1H-indol-2-yl]-methanone]
- EC50 (Hepatocyte): 175 nM

SMILES: NCC1CCN(C(=O)c2cc3cc(Cl)cc(NC4CCCCC4)c3[nH]2)C1 (centres unmarked) [Example 51]
- EC50: 330 nM

SMILES: NCC1CCCN(C(=O)c2cc3cc(Cl)cc(NC4CCCC4)c3[nH]2)C1 (centres unmarked) [Example 52]
- EC50: 210 nM

SMILES: NCC1CCN(C(=O)c2cc3cc(Cl)cc(N(CC4CC4)CC4CC4)c3[nH]2)C1 (centres unmarked) [Example 53, (3-Aminomethyl-pyrrolidin-1-yl)-[7-(bis-cyclopropylmethyl-amino)-5-chloro-1H-indol-2-yl]-methanone]
- EC50 (Hepatocyte): 710 nM

SMILES: N[C@H]1CCN(C(=O)c2cc3cc(Cl)cc(NC4CCCC4)c3[nH]2)C1 [Example 55, ((S)-3-amino-pyrrolidin-1-yl)-(5-chloro-7-cyclopentylamino-1H-indol-2-yl}-methanone]
- EC50 (Hepatocyte): 430 nM

SMILES: CC(C)CCN(CCC(C)C)c1cc(Cl)cc2cc(C(=O)N3C[C@@H](CN4CCCC4)[C@H](c4ccc(F)cc4F)C3)[nH]c12 [Example 60, {7-[Bis-(3-methyl-butyl)-amino]-5-chloro-1H-indol-2-yl}-[(3R,4R)-3-(2,4-difluoro-phenyl)-4-pyrrolidin-1-ylmethyl-pyrrolidin-1-yl]-methanone]
- EC50 (Hepatocyte): 250 nM
